Tests used:
[1] = molecular target: T1, p60^c-src (Homo sapiens, UniProt P12931); test: Inhibition constant of the ATP derivative / Km for ATP, p60^c-src assay (peptide substrate); type: biochemical; conditions: 20 μM ATP
T1 construct: Department of Microbiology, University of Virginia (obtained from; not a purchase)
Source text: (§1) [γ-^32 P] ATP was synthesized according to the procedure set forth in Johnson et al., Advances in Cyclic Nucleotide Research, 10:135-167 (1979). The catalytic subunit of cyclic-AMP-dependent protein kinase was purchased from Promega. p60^c-arc was obtained from the Department of Microbiology, University of Virginia. Recombinant p42^mapk was purified as described in Haystead et al., (1992) FEBS Lett., 306:17-22. STE7 antibody was obtained from the University of Vancouver, Canada.
(§2) The 42-kDa MAP kinase (p42^mapk) and MAPKK were assayed as described previously (Haystead et al. (1992) FEBS. Lett., 306:17-22). The cyclic-A kinase assays (30 μl) included 1 μg cyclic-A kinase, 2 mM Kemptide, 50 mM Hepes, pH 7.4, 1 mM dithiothreitol, 200 μM ATP, 5 mM MgCl2. […]
(§3) In order to assess the effectiveness of adenosine 5'-(γ-4-aminophenyl)triphosphate as an affinity ligand for protein kinases, the inhibition constants (Ki) of the derivative were determined for four different protein kinases, namely, p42^mapk, cyclic-A kinase, MAPKK and p60^c-arc (Table 1). […] This also facilitated comparisons for the relative binding constants determined with other ATP analogs (Flockhart et al. (1984) Eur. J. Biochem., 140:289-295; Hoppe et al. (1972) Eur. J. Biochem., 80:369-372; Taylor et al. (1990) Peptides and Protein Phosphorylation (Kemp et al.) pp 2-32, CRC Press).

[2] = molecular target: T2, MAPKK (Oryctolagus cuniculus, UniProt P29678); test: Inhibition constant of the ATP derivative / Km for ATP, MAPKK assay; type: biochemical, rabbit
T2 construct: MAPKK, from rabbit skeletal muscle, was partially purified 600-fold; from tissue; host or cells: skeletal muscle (back and hind-limb) of a female New Zealand white rabbit
Protocol: A fed female New Zealand white rabbit was euthanized by lethal injection with phenobarbital via the marginal ear vein. The back and hind-limb skeletal muscle (300 g) were rapidly excised, minced and homogenized at 4° C. with 2.5 vol. solution C (50 mM 2-glycerophosphate, pH 7.3, 1.5 mM EGTA, 0.15 μM sodium orthovanidate, 1 mM dithiothreitol, 1 mM phenylmethanesulfonyl fluoride, 1 mM benzamidine) containing 6 μg/ml leupeptin. All subsequent steps were carried out at 4° C. […] The DEAE was packed into a glass column (20 cm×50 cm) washed with solution C until the absorbance at […] of the eluate was <0.005 absorbance. […]
as §3

[3] = molecular target: T3, p42^mapk (Mus musculus, UniProt P63085); test: Inhibition constant of the ATP derivative / Km for ATP, p42^mapk assay; type: biochemical; conditions: 20 μM ATP
T3 construct: made in house
Source text: as §1, §2, §3

[4] = system: four different protein kinases, namely, p42^mapk, cyclic-A kinase, MAPKK and p60^c-arc; test: Inhibition of four protein kinases by the ATP derivative (summary over all enzymes); type: biochemical
Protocol: The 42-kDa MAP kinase (p42^mapk) and MAPKK were assayed as described previously (Haystead et al. (1992) FEBS. Lett., 306:17-22). The cyclic-A kinase assays (30 μl) included 1 μg cyclic-A kinase, 2 mM Kemptide, 50 mM Hepes, pH 7.4, 1 mM dithiothreitol, 200 μM ATP, 5 mM MgCl2. Reactions were terminated by spotting 25 μl assay mixture onto P81 paper as described in Haystead et al. (1992) FEBS Lett., 306:17-22. p60^c-arc assays were similar, except a 2 mM peptide (Rossomando et al., 1992) Proc. Natl. Acad. Sci., 89:5221-5225) was used as the substrate.
In order to assess the effectiveness of adenosine 5'-(γ-4-aminophenyl)triphosphate as an affinity ligand for protein kinases, the inhibition constants (Ki) of the derivative were determined for four different protein kinases, namely, p42^mapk, cyclic-A kinase, MAPKK and p60^c-arc (Table 1). The Ki was determined in the presence of 20 μM ATP. However, since the Km for ATP varied for each protein kinase tested, for comparative purposes it was convenient to determine the Ki /Km quotient (Table 1). This also facilitated comparisons for the relative binding constants determined with other ATP analogs (Flockhart et al. (1984) Eur. J. Biochem., 140:289-295; Hoppe et al. (1972) Eur. J. Biochem., 80:369-372; Taylor et al. (1990) Peptides and Protein Phosphorylation (Kemp et al.) pp 2-32, CRC Press).

[5] = molecular target: Cyclic A kinase (Bos taurus, UniProt P00517); test: Inhibition constant of the ATP derivative / Km for ATP, cyclic-A kinase assay (Kemptide substrate)
[6] = [Mg^2+] reduced to levels equimolar with free ATP

T2 sequence (P29678 whole entry): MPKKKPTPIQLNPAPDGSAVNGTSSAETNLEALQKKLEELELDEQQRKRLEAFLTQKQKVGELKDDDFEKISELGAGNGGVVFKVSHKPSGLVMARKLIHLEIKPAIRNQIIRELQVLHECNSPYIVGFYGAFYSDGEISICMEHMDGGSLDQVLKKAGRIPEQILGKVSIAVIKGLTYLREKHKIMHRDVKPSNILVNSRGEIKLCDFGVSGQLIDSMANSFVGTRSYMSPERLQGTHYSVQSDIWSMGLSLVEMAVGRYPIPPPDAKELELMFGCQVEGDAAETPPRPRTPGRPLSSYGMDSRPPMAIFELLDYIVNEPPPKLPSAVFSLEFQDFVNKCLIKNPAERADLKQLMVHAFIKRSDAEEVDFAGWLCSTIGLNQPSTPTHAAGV
T1 sequence (P12931 whole entry): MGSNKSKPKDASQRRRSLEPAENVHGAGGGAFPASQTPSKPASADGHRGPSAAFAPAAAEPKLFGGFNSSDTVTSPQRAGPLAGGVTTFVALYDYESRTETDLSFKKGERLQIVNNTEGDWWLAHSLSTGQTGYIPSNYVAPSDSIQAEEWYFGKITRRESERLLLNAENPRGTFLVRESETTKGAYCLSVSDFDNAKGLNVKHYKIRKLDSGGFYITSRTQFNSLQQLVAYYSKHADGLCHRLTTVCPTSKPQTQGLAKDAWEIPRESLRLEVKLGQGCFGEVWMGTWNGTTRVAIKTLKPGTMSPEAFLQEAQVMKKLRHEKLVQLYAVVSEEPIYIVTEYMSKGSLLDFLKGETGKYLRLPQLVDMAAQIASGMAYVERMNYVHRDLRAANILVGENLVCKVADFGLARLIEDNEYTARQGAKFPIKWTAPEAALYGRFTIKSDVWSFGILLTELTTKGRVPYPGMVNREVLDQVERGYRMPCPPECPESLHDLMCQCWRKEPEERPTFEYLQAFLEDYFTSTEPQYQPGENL
T3 sequence (P63085 whole entry): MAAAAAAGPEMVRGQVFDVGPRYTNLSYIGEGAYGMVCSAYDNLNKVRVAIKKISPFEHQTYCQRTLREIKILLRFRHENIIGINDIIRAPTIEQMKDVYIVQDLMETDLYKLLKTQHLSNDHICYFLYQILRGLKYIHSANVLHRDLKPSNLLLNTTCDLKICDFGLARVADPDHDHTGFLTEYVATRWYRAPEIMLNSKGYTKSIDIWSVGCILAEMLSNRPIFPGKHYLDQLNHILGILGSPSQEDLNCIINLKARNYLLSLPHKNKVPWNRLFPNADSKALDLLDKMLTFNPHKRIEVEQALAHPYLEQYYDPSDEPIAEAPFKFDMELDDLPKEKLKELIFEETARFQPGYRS

Nc1ccc(OP(=O)(O)OP(=O)(O)OP(=O)(O)OC[C@H]2O[C@@H](n3cnc4c(N)ncnc43)[C@H](O)[C@@H]2O)cc1 [adenosine-5'-(γ-4-aminophenyl)triphosphate]
Ki /Km ([1]; Km for ATP): 19.35
Ki ([1]; read-out: Ki ± SDM): 120 ± 13.6 µM
Ki [2]: 176 ± 22.1 µM
Ki /Km ([2]; MAPKK, 20 μM ATP, Km for ATP): 15.20
Ki /Km ([3]; Km for ATP): 10.02
Ki ([3]; read-out: Ki ± SDM): 75.2 ± 8.2 µM
competition with ATP ([4]; 20 μM ATP): competes with ATP
Ki /Km quotient ([4]; 20 μM ATP, range over four enzymes): 10-20
Ki ([4]; 20 μM ATP, range over four enzymes, read-out: apparent Ki values obtained against each enzyme): 75 to 180 µM
effect on the Ki /Km quotient of reduced [Mg^2+] [4, 6]: no effect
effect on the Ki of reduced [Mg^2+] [4, 6]: no effect
Ki [5]: 104 ± 11.6 µM
Ki /Km ([5]; cyclic A kinase, 20 μM ATP, Km for ATP): 14.60
